According to US9637787B2, “Culture based screening assay and methods of use thereof to identify agents which modulate tumor development, invasion and differentiation” (The Trustees of the University of Pennsylvania, priority 2007, dated 2017):

Columns and labels:
periostin = experiment: Western blot of periostin expression in cell lysates; format: cell-based, human; settings: EPC2-hTERT-EGFR-p53^R175H cells, 24 h treatment; EGF 10 ng/μl, AG1478 1 μM, 5-iminodaunorubicin 3 μM
Procedure: FIG. 24: Periostin expression is dependent upon EGFR signaling and mutant p53 activation (A) Western blot analysis of periostin (90 kDa) in EPC2-hTERT-EGFR-p53^R175H, EPC2-hTERT-puro-neo, EPC2-hTERT-EGFR-neo and EPC2-hTERT-neo-p53^R175H cells. (B) Western blot analysis of periostin expression in EPC2-hTERT-EGFR-p53^R175H cell lysates after 24 h treatment with EGF (10 ng/μl), EGFR inhibitor AG1478 (1 μM) and 5-iminodaunorubicin (3 μM). Immunoblotting for total EGFR and phosphorylated EGFR to confirm inhibition of EGFR as well as p21 to indicate restoration of wildtype p53 signaling. β-actin was used as a loading control. Densitometry ratios of periostin/β-actin were calculated and recorded.
(§1) For Western blot analysis, cells were lysed in lysis buffer (10 mM Tris-HCl, pH 7.4, 150 mM NaCl, 1% Nonidet P-40, 0.1% sodium deoxycholate, 0.1% SDS, 1 mM EDTA, 2 mM sodium orthovanadate and a protease inhibitor tablet, Roche Molecular Biochemicals, Indianapolis, Ind.). Protein concentration was determined by the Bio-Rad protein assay (Bio-Rad, Hercules, Calif.). 15 μg of protein were run on a 4-12% SDS-PAGE gel (Invitrogen™) and transferred to a polyvinylidene difluoride membrane (Immobilon-P®, Millipore, Bedford, Mass.). Membranes were blocked in 5% nonfat milk (Bio-Rad) in TBS-T (10 mM Tris, 150 mM NaCl, pH 8.0 and 0.1% Tween® 20) for 1 h at room temperature. Membranes were then probed with primary antibody diluted in 5% milk in TBS-T overnight at 4° C., washed with TBS-T and incubated with anti-mouse or anti-rabbit horseradish peroxidase-conjugated secondary antibodies (GE Biotech, 1:3000 in TBS-T) for 1 h at room temperature and washed in TBS-T. The signal was visualized using an enhanced chemiluminescence solution (ECL Plus, Amersham™ Pharmacia Biotech) and exposed to Blue Lite Autorad film (ISC-BioExpress, Kaysville, Utah). To confirm secreted periostin expression, conditioned media was collected and protein concentration was determined by Bio-Rad protein assay (Bio-Rad) and Western blot analysis was performed as described above.

Met = Met phosphorylation in EPC-hTERT-EGFR-p53^R175H cells; format: cell-based, human; settings: data not shown
Procedure: as §1

MMP-1 = target: T1, MMP-1 (Homo sapiens, UniProt P03956); settings: cited from earlier work
T1 sequence (P03956 100-469): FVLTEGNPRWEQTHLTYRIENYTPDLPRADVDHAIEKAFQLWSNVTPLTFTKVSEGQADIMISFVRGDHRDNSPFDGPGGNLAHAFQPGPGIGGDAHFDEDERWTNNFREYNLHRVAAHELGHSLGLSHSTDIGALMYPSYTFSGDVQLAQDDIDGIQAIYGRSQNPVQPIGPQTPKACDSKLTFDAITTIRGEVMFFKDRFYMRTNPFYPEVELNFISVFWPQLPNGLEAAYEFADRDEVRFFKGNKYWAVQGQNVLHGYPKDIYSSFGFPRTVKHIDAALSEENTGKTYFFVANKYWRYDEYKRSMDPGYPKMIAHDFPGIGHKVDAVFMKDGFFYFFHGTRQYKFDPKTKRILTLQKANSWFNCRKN

[1] = tested on: EPC-hTERT-EGFR-p53^R175H cells; experiment: matrix invasion in 3D organotypic culture above FEF3 fetal esophageal fibroblast matrices; format: cell-based, human; settings: 100 nM
Procedure: (§2) (A) Fluorescence measurements representing invading cells on the bottom filters of a Matrigel®-coated Boyden chamber where HGF was added as the chemoattractant of EPC-hTERT-EGFR-p53^R175H cells seeded atop the filter. (B) Level of secreted HGF in conditioned media from FEF3 fibroblasts±HGF siRNA set up in organotypic culture and detected by ELISA. (C) H&E sections of organotypic cultures of FEF3 fibroblasts±HGF siRNA seeded into the matrix with EPC-hTERT-EGFR-p53^R175H grown above (scale bar=100 μm). (D) Quantification of invasion in entire organotypic culture imaged in (C). Error bars represent ±SEM and * indicates p values ≦0.05 when compared to the control.
(A) Western blot of EPC-hTERT-EGFR-p53^R175HshMet or EPC-hTERT-EGFR-p53^R175H shScramble cells (two independent lines of each genotype) to determine extent of Met knockdown of total protein and activation state. (B) H&E sections of organotypic culture of EPC-hTERT-EGFR-p53^R175H-shMet or EPC-hTERT-EGFRp53^R175H-shScramble cells seeded above matrices containing FEF3 fetal esophageal fibroblasts. (C) H&E sections of organotypic cultures of EPC-hTERT-EGFR-p53^R175H cells seeded above FEF3 matrices treated with DMSO vehicle (days 7-15) or 100 nM PHA665752 (days 7-15 or day 11-15) as indicated. […]

[2] = tested on: EPC-hTERT-EGFR-p53^R175H cells; experiment: Matrigel-coated Boyden chamber invasion assay with chemoattractant; format: cell-based, human; settings: HGF added as chemoattractant
Procedure: as §2
For migration assays, Boyden chambers (8 μm pore size, FluoroBlok-HTS inserts, BD Biosciences) were used. For invasion assays, insert-plates (8 μm pore size, FluoroBlock, 24 well insert) coated with BD Matrigel® matrix were used. Inserts were placed in a 24-well plate containing Full KSFM medium with serum to stimulate cell migration and invasion. 5×10^4 cells in serum-free medium were placed in each insert. Twenty-four hours later, migrating or invading cells were labeled with 4 μg/ml Calcein AM dye (Invitrogen™) in HANKS buffer for 1 hour. The labeled cells were then read on a Synergy HT multi-detection microplate reader (BIOTEK®, Woburn, Mass.) at 485 nm excitation and 528 nm detection. […]

In the case of COc1cccc2c1C(=N)c1c(O)c3c(c(O)c1C2=O)C[C@@](O)(C(C)=O)C[C@@H]3O[C@H]1C[C@H](N)[C@H](O)[C@H](C)O1 [5-iminodaunorubicin], the periostin protein expression (periostin) is reported as “decreased”.

With COc1cc2ncnc(Nc3cccc(Cl)c3)c2cc1OC [AG1478] the periostin protein expression (periostin) was “decreased” and the Met phosphorylation (Met) was “nor was Met phosphorylation inhibited”.

In the case of CCN(CC)Cc1cc(C)c(N(Cc2ccccc2)S(=O)(=O)c2ccc(OC)cc2)c(C(=O)NO)c1 [MMP-9 inhibitor], the IC50 (MMP-1) is listed as 1050 nM.

In the case of Cc1[nH]c(/C=C2\C(=O)Nc3ccc(S(=O)(=O)Cc4c(Cl)cccc4Cl)cc32)c(C)c1C(=O)N1CCC[C@@H]1CN1CCCC1 [PHA665752], the “invasion of EPC-hTERT-EGFR-p53^R175H cells in organotypic culture” value ([1]; treated for seven days following epithelial cell seeding (days 7-15)) is reported as “inhibited invasion” and the “invasion of EPC-hTERT-EGFR-p53^R175H cells in organotypic culture” value ([1]; treated for the final four days when invasion occurs (day 11-15)) is reported as “inhibited invasion”.

In the case of “EGF: epidermal growth factor used to stimulate EGFR”, the periostin protein expression (periostin) is reported as “increased periostin protein expression”.

In the case of “HGF: Recombinant human HGF purchased from R&D Systems”, the “levels of invading cells” value [2] is reported as “significantly increased levels of invading”.
